Where “and” joins values, the source holds several entries; their conditions need not be identical. Equal entries are not always repeated.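 A five-concentration, 48-hour dose response in 96-well plates underlies each endpoint, interpolated linearly between surrounding concentrations. GI50 = concentration required for 50% inhibition of growth. TGI is the concentration that stops growth completely.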
Legend:
Test in all cases: NCI tumour cell line growth inhibition, 48 h
SNB-75 CNS = system: SNB-75 CNS
UACC-62 melanoma = system: UACC-62 melanoma
DMS 114 small cell lung = system: DMS 114 small cell lung
SR leukemia = system: SR leukemia
CCRF-CEM leukemia = system: CCRF-CEM leukemia
RPMI-8226 leukemia = system: RPMI-8226 leukemia
OVCAR-4 ovarian = system: OVCAR-4 ovarian
SK-MEL-28 melanoma = system: SK-MEL-28 melanoma
COLO 205 colon = system: COLO 205 colon
SK-MEL-5 melanoma = system: SK-MEL-5 melanoma
NCI-H23 lung = system: NCI-H23 lung
TK-10 renal = system: TK-10 renal
KM12 colon = system: KM12 colon
HL-60(TB) leukemia = system: HL-60(TB) leukemia
M14 melanoma = system: M14 melanoma
OVCAR-5 ovarian = system: OVCAR-5 ovarian
SK-OV-3 ovarian = system: SK-OV-3 ovarian
OVCAR-8 ovarian = system: OVCAR-8 ovarian
SNB-19 CNS = system: SNB-19 CNS
HT29 colon = system: HT29 colon
A549 NSCLC = system: A549 NSCLC
MOLT-4 leukemia = system: MOLT-4 leukemia
CAKI-1 renal = system: CAKI-1 renal
SN12C renal = system: SN12C renal
SF-539 CNS = system: SF-539 CNS
HCC-2998 colon = system: HCC-2998 colon
DLD-1 colon = system: DLD-1 colon
UACC-257 melanoma = system: UACC-257 melanoma
SF-268 CNS = system: SF-268 CNS
K-562 leukemia = system: K-562 leukemia
HCT-116 colon = system: HCT-116 colon
DMS 273 small cell lung = system: DMS 273 small cell lung
SW-620 colon = system: SW-620 colon
A498 renal = system: A498 renal
NCI-H522 lung = system: NCI-H522 lung
SK-MEL-2 melanoma = system: SK-MEL-2 melanoma
M19-MEL melanoma = system: M19-MEL melanoma
OVCAR-3 ovarian = system: OVCAR-3 ovarian
EKVX NSCLC = system: EKVX NSCLC
NCI-H226 lung = system: NCI-H226 lung
XF 498 CNS = system: XF 498 CNS
RXF-631 renal = system: RXF-631 renal
IGROV1 ovarian = system: IGROV1 ovarian
KM20L2 colon = system: KM20L2 colon
LXFL 529 NSCLC = system: LXFL 529 NSCLC
MALME-3M melanoma = system: MALME-3M melanoma
SF-295 CNS = system: SF-295 CNS
NCI-H460 lung = system: NCI-H460 lung
HCT-15 colon = system: HCT-15 colon
SNB-78 CNS = system: SNB-78 CNS
ACHN renal = system: ACHN renal
RXF 393 renal = system: RXF 393 renal
UO-31 renal = system: UO-31 renal
HOP-62 NSCLC = system: HOP-62 NSCLC
HOP-18 NSCLC = system: HOP-18 NSCLC
U251 CNS = system: U251 CNS
786-0 renal = system: 786-0 renal
HOP-92 NSCLC = system: HOP-92 NSCLC
LOX IMVI melanoma = system: LOX IMVI melanoma
P388/ADR leukemia = system: P388/ADR leukemia
NCI/ADR-RES ovarian = system: NCI/ADR-RES ovarian
P388 leukemia = system: P388 leukemia
MCF7 breast = system: MCF7 breast
SN12K1 renal = system: SN12K1 renal
MDA-N = system: MDA-N

Which TGI (SNB-75 CNS) does the source give for `CC(=O)CC(N)=O` here?
Its TGI is > 100 µM.

What about the TGI (UACC-62 melanoma) of the same molecule?
Its TGI is > 100 µM.

And the TGI (DMS 114 small cell lung)?
Its TGI is > 100 µM.

What about the TGI (SR leukemia) of the same molecule?
The TGI was > 100 µM.

What about the TGI (CCRF-CEM leukemia) of the same molecule?
The TGI was > 100 µM.

And the TGI (RPMI-8226 leukemia)?
The TGI was > 100 µM.

What about the TGI (OVCAR-4 ovarian) of the same molecule?
The TGI was > 100 µM.

And the TGI (SK-MEL-28 melanoma)?
Its TGI is > 100 µM.

What about the TGI (COLO 205 colon) of the same molecule?
The TGI was > 100 µM.

What about the TGI (SK-MEL-5 melanoma) of the same molecule?
The TGI was > 100 µM.

And the TGI (NCI-H23 lung)?
The TGI was > 100 µM.

What about the TGI (TK-10 renal) of the same molecule?
Its TGI is > 100 µM.

And the TGI (KM12 colon)?
The TGI was > 100 µM.

And the TGI (HL-60(TB) leukemia)?
Its TGI is > 100 µM.

What about the TGI (M14 melanoma) of the same molecule?
The TGI was > 100 µM.

What about the TGI (OVCAR-5 ovarian) of the same molecule?
Its TGI is > 100 µM.

What about the TGI (SK-OV-3 ovarian) of the same molecule?
The TGI was > 100 µM.

And the TGI (OVCAR-8 ovarian)?
Its TGI is > 100 µM.

What about the TGI (SNB-19 CNS) of the same molecule?
Its TGI is > 100 µM.

And the TGI (HT29 colon)?
Its TGI is > 100 µM.

What about the TGI (A549 NSCLC) of the same molecule?
Its TGI is > 100 µM.

What about the TGI (MOLT-4 leukemia) of the same molecule?
The TGI was > 100 µM.

What about the TGI (CAKI-1 renal) of the same molecule?
Its TGI is > 100 µM.

What about the TGI (SN12C renal) of the same molecule?
The TGI was > 100 µM.

And the TGI (SF-539 CNS)?
Its TGI is > 100 µM.

What about the TGI (HCC-2998 colon) of the same molecule?
The TGI was > 100 µM.

And the TGI (DLD-1 colon)?
The TGI was > 100 µM.

And the TGI (UACC-257 melanoma)?
The TGI was > 100 µM.

What about the TGI (SF-268 CNS) of the same molecule?
Its TGI is > 100 µM.

And the TGI (K-562 leukemia)?
Its TGI is > 100 µM.

And the TGI (HCT-116 colon)?
Its TGI is > 100 µM.

And the TGI (DMS 273 small cell lung)?
The TGI was > 100 µM.

And the TGI (SW-620 colon)?
Its TGI is > 100 µM.

And the TGI (A498 renal)?
The TGI was > 100 µM.

What about the TGI (NCI-H522 lung) of the same molecule?
Its TGI is > 100 µM.

And the TGI (SK-MEL-2 melanoma)?
Its TGI is > 100 µM.

And the TGI (M19-MEL melanoma)?
Its TGI is > 100 µM.

What about the TGI (OVCAR-3 ovarian) of the same molecule?
Its TGI is > 100 µM.

And the TGI (EKVX NSCLC)?
Its TGI is > 100 µM.

What about the TGI (NCI-H226 lung) of the same molecule?
Its TGI is > 100 µM.

What about the TGI (XF 498 CNS) of the same molecule?
Its TGI is > 100 µM.

And the TGI (RXF-631 renal)?
The TGI was > 100 µM.

What about the TGI (IGROV1 ovarian) of the same molecule?
Its TGI is > 100 µM.

What about the TGI (KM20L2 colon) of the same molecule?
Its TGI is > 100 µM.

And the TGI (LXFL 529 NSCLC)?
The TGI was > 100 µM.

And the TGI (MALME-3M melanoma)?
Its TGI is > 100 µM.

And the TGI (SF-295 CNS)?
The TGI was > 100 µM.

What about the TGI (NCI-H460 lung) of the same molecule?
The TGI was > 100 µM.

And the TGI (HCT-15 colon)?
Its TGI is > 100 µM.

And the TGI (SNB-78 CNS)?
Its TGI is > 100 µM.

What about the TGI (ACHN renal) of the same molecule?
The TGI was > 100 µM.

What about the TGI (RXF 393 renal) of the same molecule?
The TGI was > 100 µM.

What about the TGI (UO-31 renal) of the same molecule?
Its TGI is > 100 µM.

What about the TGI (HOP-62 NSCLC) of the same molecule?
Its TGI is > 100 µM.

And the TGI (HOP-18 NSCLC)?
The TGI was > 100 µM.

What about the TGI (U251 CNS) of the same molecule?
The TGI was > 100 µM.

What about the TGI (786-0 renal) of the same molecule?
Its TGI is > 100 µM.

And the TGI (HOP-92 NSCLC)?
The TGI was > 100 µM.

Which results are given for `O=P1(Oc2ccc(Cl)cc2Cl)Oc2ccc3ccccc3c2-c2c(ccc3ccccc23)O1`?
TGI (SNB-75 CNS): 85 µM; TGI (LOX IMVI melanoma): 53.9 µM; TGI (UACC-62 melanoma): 70.4 µM; TGI (CCRF-CEM leukemia): > 89.6 µM; TGI (RPMI-8226 leukemia): 48 µM; TGI (OVCAR-4 ovarian): 94.2 µM; TGI (SK-MEL-28 melanoma): > 85.4 µM; TGI (COLO 205 colon): > 100 µM; TGI (P388/ADR leukemia): > 100 µM; TGI (SK-MEL-5 melanoma): > 100 µM; TGI (NCI-H23 lung): 75.8 µM; TGI (KM12 colon): > 90.4 µM; TGI (HL-60(TB) leukemia): 53.8 µM; TGI (OVCAR-5 ovarian): > 100 µM; TGI (SK-OV-3 ovarian): > 100 µM; TGI (OVCAR-8 ovarian): > 100 µM; TGI (SNB-19 CNS): 82.8 µM; TGI (HT29 colon): > 100 µM; TGI (A549 NSCLC): > 100 µM; TGI (MOLT-4 leukemia): 55.6 µM; TGI (CAKI-1 renal): 43.3 µM; TGI (SN12C renal): > 100 µM; TGI (SF-539 CNS): 43 µM; TGI (HCC-2998 colon): 61.4 µM; TGI (DLD-1 colon): > 100 µM; TGI (UACC-257 melanoma): > 100 µM; TGI (SF-268 CNS): > 100 µM; TGI (K-562 leukemia): > 100 µM; TGI (HCT-116 colon): > 75.1 µM; TGI (DMS 273 small cell lung): > 93.2 µM; TGI (SW-620 colon): > 100 µM; TGI (A498 renal): > 95.4 µM; TGI (NCI-H522 lung): 50.7 µM; TGI (SK-MEL-2 melanoma): 36 µM; TGI (M19-MEL melanoma): 47.9 µM; TGI (OVCAR-3 ovarian): 49.5 µM; TGI (EKVX NSCLC): > 67.3 µM; TGI (NCI-H226 lung): 59.8 µM; TGI (XF 498 CNS): 56.7 µM; TGI (IGROV1 ovarian): > 71.8 µM; TGI (KM20L2 colon): > 76.2 µM; TGI (NCI/ADR-RES ovarian): > 100 µM; TGI (MALME-3M melanoma): 46.4 µM; TGI (SF-295 CNS): > 94.7 µM; TGI (P388 leukemia): > 100 µM; TGI (NCI-H460 lung): > 90.6 µM; TGI (HCT-15 colon): > 77.1 µM; TGI (SNB-78 CNS): > 83.8 µM; TGI (RXF 393 renal): 34.7 µM; TGI (UO-31 renal): 41.3 µM; TGI (MCF7 breast): > 100 µM; TGI (HOP-62 NSCLC): 40 µM; TGI (SN12K1 renal): 43.1 µM; TGI (HOP-18 NSCLC): > 100 µM; TGI (U251 CNS): 47.5 µM; TGI (HOP-92 NSCLC): 50.1 µM

`CC(=O)O[C@H]1C(=O)[C@@]2(C)[C@H]([C@H](OC(=O)c3ccccc3)[C@]3(O)C[C@H](OC(=O)[C@H](O)[C@@H](NC(=O)c4ccccc4)c4ccccc4)C(C)=C1C3(C)C)[C@]1(OC(C)=O)CO[C@@H]1C[C@@H]2O` was tested. Which TGI (DMS 114 small cell lung) did it give?
The TGI was 0.0217 µM.

What about the TGI (SK-MEL-28 melanoma) of the same molecule?
Its TGI is 25 µM and > 71 µM.

What about the TGI (P388/ADR leukemia) of the same molecule?
Its TGI is 25 µM.

And the TGI (A549 NSCLC)?
Its TGI is 25 µM and > 100 µM and 67.7 µM.

And the GI50 (DLD-1 colon)?
The GI50 was 0.0551 µM.

What about the TGI (DLD-1 colon) of the same molecule?
The TGI was 24.4 µM and > 100 µM.

And the TGI (DMS 273 small cell lung)?
The TGI was 3.68 µM.

And the GI50 (MDA-N)?
Its GI50 is 0.0025 µM and 0.0231 µM.

What about the TGI (XF 498 CNS) of the same molecule?
Its TGI is 0.0355 µM.

And the GI50 (LXFL 529 NSCLC)?
The GI50 was 0.00356 µM.

What about the TGI (LXFL 529 NSCLC) of the same molecule?
The TGI was 55.2 µM.

And the TGI (NCI/ADR-RES ovarian)?
Its TGI is 15.1 µM and > 100 µM and 37.5 µM.

What about the TGI (P388 leukemia) of the same molecule?
Its TGI is 25 µM.

And the GI50 (SNB-78 CNS)?
The GI50 was 0.087 µM.

What about the TGI (SNB-78 CNS) of the same molecule?
The TGI was 24.3 µM and 45.1 µM.

What about the TGI (MCF7 breast) of the same molecule?
Its TGI is 15.1 µM and 88.4 µM and 56.1 µM.

And the TGI (SN12K1 renal)?
The TGI was 25 µM.

What about the TGI (HOP-18 NSCLC) of the same molecule?
The TGI was 25 µM.

— PubChem BioAssay (NCI)
